Assay results as given in patent US11001564B2, “Substituted chromane-8-carboxamide compounds and analogues thereof, and methods using same” (priority 2016, dated 2021).
Counter-ions that a name gives are not always drawn.

System: HBV rcDNA in HepDE19 cells
Assay: HepDE19 assay with bDNA quantitation of HBV rcDNA
Format: cell-based, hepatitis B virus (HBV)
Details: Hepatitis B virus, HepDE19, 168 h, HepDE19 cells, 7 day incubation, rcDNA by Quantigene 2.0 bDNA assay; read-out: DE-19 bDNA EC50
Experimental: HepDE19 Assay with bDNA Quantitation of HBV rcDNA:
HepDE19 cell culture system is a HepG2 (human hepatocarcinoma) derived cell line that supports HBV DNA replication and cccDNA formation in a tetracycline (Tet)-regulated manner and produces HBV rcDNA and a detectable reporter molecule dependent on the production and maintenance of cccDNA (Guo, et al., 2007, J. Virol. 81:12472-12484).
HepDE19 (50,000 cells/well) were plated in 96 well collagen-coated tissue-culture treated microtiter plates in DMEM/F12 medium supplemented with 10% fetal bovine serum, 1% penicillin-streptomycin and 1 μg/mL tetracycline and incubated in a humidified incubator at 37° C. and 5% CO2 overnight. Next day, the cells were switched to fresh medium without tetracycline and incubated for 4 hours at 37° C. and 5% CO2. The cells were treated with fresh Tet-free medium with compounds at concentrations starting at 25 μM and a serial, ½ log, 8-point, titration series in duplicate. The final DMSO concentration in the assay was 0.5%. The plates were incubated for 7 days in a humidified incubator at 37° C. and 5% CO2. Following a 7 day-incubation, the level of rcDNA present in the inhibitor-treated wells was measured using a Quantigene 2.0 bDNA assay kit (Affymetrix, Santa Clara, Calif.) with HBV specific custom probe set and manufacturers instructions. Concurrently, the effect of compounds on cell viability was assessed using replicate plates, plated at a density of 5,000 cells/well and incubated for 4 days, to determine the ATP content as a measure of cell viability using the cell-titer glo reagent (CTG; Promega Corporation, Madison, Wis.) as per manufacturer's instructions. The plates were read using a Victor luminescence plate reader (PerkinElmer Model 1420 Multilabel counter) and the relative luminescence units (RLU) data generated from each well was calculated as % inhibition of the untreated control wells and analyzed using XL-Fit module in Microsoft Excel to determine EC50 and EC90 (bDNA) and CC50 (CTG) values using a 4-parameter curve fitting algorithm.
Representative compounds of the invention were tested for their ability to inhibit formation of relaxed circular DNA (rcDNA) in a HepDE19 assay, as described elsewhere herein.

Compound | EC50 [µM]
CC[C@@H](C)OC1CCOc2c(C(=O)Nc3ccc(F)c(F)c3)cccc21 (stereo partly drawn) [Compound 14, 4-((R)-sec-butoxy)-N-(3,4-difluorophenyl)chromane-8-carboxamide] | 6
O=C(N[C@H]1CCOc2c(C(=O)Nc3ccc(F)c(F)c3)cccc21)c1ccncc1 [Compound 16] | 13
COCCCOC(=O)N[C@H]1CCOc2c(C(=O)Nc3ccc(F)c(F)c3)cccc21 [Compound 19, 3-Methoxypropyl (8-((3,4-difluorophenyl)carbamoyl)chroman-4-yl) carbamate] | 6
O=C(Nc1ccc(F)c(F)c1)c1cccc2c1OCC[C@H]2NC(=O)N1CCCC1 [Compound 24, (R)-N-(8-((3,4-difluorophenyl)carbamoyl)chroman-4-yl)pyrrolidine-1-carboxamide] | 24
O=C(N[C@H]1CCOc2c(C(=O)Nc3ccc(F)c(F)c3)cccc21)OCc1ccccn1 [Compound 27, Pyridin-2-ylmethyl-(8-((3,4-difluorophenyl)carbamoyl)chroman-4-yl)carbamate] | 2.5
O=C(N[C@@H]1CCOc2c(C(=O)Nc3ccc(F)c(F)c3)cccc21)OCc1ccccn1 [Compound 28, pyridin-2-ylmethyl (R)-(8-((3,4-difluorophenyl)carbamoyl)chroman-4-yl)carbamate] | 15
O=C(N[C@H]1CCOc2c(C(=O)Nc3ccc(F)c(F)c3)cccc21)OCc1ccncc1 [Compound 29, Pyridin-4-ylmethyl-(8-((3,4-difluorophenyl)carbamoyl)chroman-4-yl)carbamate] | 2.2
O=C(N[C@@H]1CCOc2c(C(=O)Nc3ccc(F)c(F)c3)cccc21)OCc1ccncc1 [Compound 30, pyridin-4-ylmethyl (R)-(8-((3,4-difluorophenyl)carbamoyl)chroman-4-yl)carbamate] | 11
COC(=O)N[C@H]1CCOc2c(C(=O)NCc3ccc(F)cc3)cccc21 [Compound 31, Methyl (S)-(8-((4-fluorobenzyl)carbamoyl)chroman-4-yl)carbamate] | 17
COC(=O)N[C@H]1CCOc2c(C(=O)Nc3ccc(F)c(Cl)c3)cccc21 [Compound 32, Methyl (S)-(8-((3-chloro-4-fluorophenyl)carbamoyl)chroman-4-yl)carbamate] | 0.85
COC(=O)N[C@H]1CCOc2c(C(=O)Nc3ccc(F)cc3)cccc21 [Compound 33, Methyl (S)-(8-((4-fluorophenyl)carbamoyl)chroman-4-yl)carbamate] | 3.5
NC(=O)NC1CCOc2c(C(=O)Nc3ccc(F)c(F)c3)cccc21 (centres unmarked) [Compound 34, N-(3,4-Difluorophenyl)-4-ureidochromane-8-carboxamide] | 4.7
COC(=O)N[C@H]1CCOc2c(C(=O)Nc3ccccc3)cccc21 [Compound 35, Methyl (S)-(8-(phenylcarbamoyl)chroman-4-yl)carbamate] | 7.5
COC(=O)N[C@H]1CCOc2c(C(=O)NCc3cccc(F)c3)cccc21 [Compound 36, methyl (S)-(8-((3-fluorobenzyl)carbamoyl)chroman-4-yl)carbamate] | 22
COC(=O)N[C@H]1CCOc2c(C(=O)Nc3cccc(Cl)c3)cccc21 [Compound 37, Methyl (S)-(8-((3-chlorophenyl)carbamoyl)chroman-4-yl)carbamate] | 2.8
COC(=O)N[C@@H]1CCOc2c(C(=O)Nc3ccc(F)c(F)c3)ccc(F)c21 [Compound 39, methyl (R)-(8-((3,4-difluorophenyl)carbamoyl)-5-fluorochroman-4-yl)carbamate] | 8.5
CNC(=O)N[C@@H]1CCOc2c(C(=O)Nc3ccc(F)c(F)c3)ccc(F)c21 [Compound 41, (R)-N-(3,4-difluorophenyl)-5-fluoro-4-(3-methylureido) chromane-8-carboxamide] | 23
O=C(Nc1ccc(F)c(F)c1)c1cccc2c1OCC[C@@H]2Nc1ncccn1 [Compound 42, (S)-N-(3,4-difluorophenyl)-4-(pyrimidin-2-ylamino) chromane-8-carboxamide] | 3.4
COC(=O)N[C@H]1CCOc2c(C(=O)Nc3cccc(C#N)c3)cccc21 [Compound 43, Methyl (S)-(8-((3-cyanophenyl)carbamoyl)chroman-4-yl)carbamate] | 8.7
COC(=O)N[C@H]1CCOc2c(C(=O)Nc3ccc(F)c(C(F)(F)F)c3)cccc21 [Compound 44, Methyl (S)-(8-((4-fluoro-3-(trifluoromethyl)phenyl)carbamoyl)chroman-4-yl)carbamate] | 3.5
COC(=O)N[C@H]1CCOc2c(C(=O)Nc3cc(F)c(F)c(F)c3)cccc21 [Compound 45, Methyl (S)-(8-((3,4,5-trifluorophenyl)carbamoyl)chroman-4-yl)carbamate] | 1.2
COC(=O)N[C@H]1CCOc2c(C(=O)Nc3cc(F)cc(F)c3)cccc21 [Compound 46, Methyl (S)-(8-((3,5-difluorophenyl)carbamoyl)chroman-4-yl)carbamate] | 5.8
CNC(=O)N[C@H]1CCOc2c1ccc(F)c2C(=O)Nc1ccc(F)c(F)c1 [Compound 48, (S)-N-(3,4-difluorophenyl)-7-fluoro-4-(3-methylureido) chromane-8-carboxamide] | 6.7
COC(=O)N[C@H]1CCOc2c(C(=O)Nc3ccc(F)c(C)c3)cccc21 [Compound 50, Methyl (S)-(8-((4-fluoro-3-methylphenyl)carbamoyl)chroman-4-yl)carbamate] | 0.65
Cc1cccc(COC(=O)N[C@H]2CCOc3c(C(=O)Nc4ccc(F)c(Cl)c4)cccc32)n1 [Compound 52, (6-Methylpyridin-2-yl)methyl (S)-(8-((3-chloro-4-fluorophenyl)carbamoyl)chroman-4-yl)carbamate] | 1.7
Cc1cccc(COC(=O)N[C@H]2CCOc3c(C(=O)Nc4ccc(F)c(F)c4)cccc32)n1 [Compound 53, (6-Methylpyridin-2-yl)methyl (S)-(8-((3,4-difluorophenyl)carbamoyl)chroman-4-yl)carbamate] | 4.4
COc1ccnc(N[C@H]2CCOc3c(C(=O)Nc4ccc(F)c(F)c4)cccc32)n1 [Compound 54, (S)—N-(3,4-Difluorophenyl)-4-((4-methoxypyrimidin-2-yl)amino)chromane-8-carboxamide] | 4.1

Same assay, conditions: Hepatitis B virus, HepDE19, 168 h, read-out: DE-19 bDNA EC50, HepDE19 cells, 7 day incubation, rcDNA by Quantigene 2.0 bDNA assay

Compound | EC50 [µM]
CNC(=O)N[C@H]1CCOc2c(C(=O)Nc3ccc(F)c(F)c3)cccc21 [Compound 13, (S)—N-(3,4-difluorophenyl)-4-(3-methylureido) chromane-8-carboxamide] | 2.3
CCOC(=O)N[C@H]1CCOc2c(C(=O)Nc3ccc(F)c(F)c3)cccc21 [Compound 18, Ethyl (8-((3,4-difluorophenyl)carbamoyl)chroman-4-yl)carbamate] | 6.6
CC(C)OC(=O)N[C@H]1CCOc2c(C(=O)Nc3ccc(F)c(F)c3)cccc21 [Compound 20, Isopropyl (8-((3,4-difluorophenyl)carbamoyl)chroman-4-yl)carbamate] | 14
CCCOC(=O)N[C@H]1CCOc2c(C(=O)Nc3ccc(F)c(F)c3)cccc21 [Compound 21, Propyl (8-((3,4-difluorophenyl)carbamoyl)chroman-4-yl)carbamate] | 22
COCCOC(=O)N[C@H]1CCOc2c(C(=O)Nc3ccc(F)c(F)c3)cccc21 [Compound 22, 2-Methoxyethyl (8-((3,4-difluorophenyl)carbamoyl)chroman-4-yl) carbamate] | 4.7
O=C(N[C@H]1CCOc2c(C(=O)Nc3ccc(F)c(F)c3)cccc21)OCc1cccnc1 [Compound 23] | 3
COC(=O)N[C@H]1CCOc2c(C(=O)Nc3ccc(F)c(F)c3)ccc(F)c21 [Compound 38, methyl (S)-(8-((3,4-difluorophenyl)carbamoyl)-5-fluorochroman-4-yl)carbamate] | 0.57
CNC(=O)N[C@H]1CCOc2c(C(=O)Nc3ccc(F)c(F)c3)ccc(F)c21 [Compound 40, (S)—N-(3,4-difluorophenyl)-5-fluoro-4-(3-methylureido)chromane-8-carboxamide] | 0.67
COC(=O)N[C@H]1CCOc2c1ccc(F)c2C(=O)Nc1ccc(F)c(F)c1 [Compound 47, Methyl (8-((3,4-difluorophenyl)carbamoyl)-7-fluorochroman-4-yl)carbamate] | 3.6
COC(=O)N[C@H]1CCOc2c(C(=O)Nc3cccc(C(F)(F)F)c3)cccc21 [Compound 49] | 11
O=C(N[C@H]1CCOc2c(C(=O)Nc3ccc(F)c(Cl)c3)cccc21)OCc1ccccn1 [Compound 51, Pyridin-2-ylmethyl (S)-(8-((3-chloro-4-fluorophenyl)carbamoyl)chroman-4-yl)carbamate hydrochloride] | 1.2
